Experimental data: patent US20240199683A1, “ANDROGEN RECEPTOR MODULATORS” (priority 2021, published 2024)

Key:
human AR [1] = molecular target: T1, human AR (Homo sapiens, UniProt P10275); test: human AR antagonist assay (Indigo Biosciences); type: cell-based
T1 construct: purchased Indigo Biosciences
T1 sequence (P10275 1-920): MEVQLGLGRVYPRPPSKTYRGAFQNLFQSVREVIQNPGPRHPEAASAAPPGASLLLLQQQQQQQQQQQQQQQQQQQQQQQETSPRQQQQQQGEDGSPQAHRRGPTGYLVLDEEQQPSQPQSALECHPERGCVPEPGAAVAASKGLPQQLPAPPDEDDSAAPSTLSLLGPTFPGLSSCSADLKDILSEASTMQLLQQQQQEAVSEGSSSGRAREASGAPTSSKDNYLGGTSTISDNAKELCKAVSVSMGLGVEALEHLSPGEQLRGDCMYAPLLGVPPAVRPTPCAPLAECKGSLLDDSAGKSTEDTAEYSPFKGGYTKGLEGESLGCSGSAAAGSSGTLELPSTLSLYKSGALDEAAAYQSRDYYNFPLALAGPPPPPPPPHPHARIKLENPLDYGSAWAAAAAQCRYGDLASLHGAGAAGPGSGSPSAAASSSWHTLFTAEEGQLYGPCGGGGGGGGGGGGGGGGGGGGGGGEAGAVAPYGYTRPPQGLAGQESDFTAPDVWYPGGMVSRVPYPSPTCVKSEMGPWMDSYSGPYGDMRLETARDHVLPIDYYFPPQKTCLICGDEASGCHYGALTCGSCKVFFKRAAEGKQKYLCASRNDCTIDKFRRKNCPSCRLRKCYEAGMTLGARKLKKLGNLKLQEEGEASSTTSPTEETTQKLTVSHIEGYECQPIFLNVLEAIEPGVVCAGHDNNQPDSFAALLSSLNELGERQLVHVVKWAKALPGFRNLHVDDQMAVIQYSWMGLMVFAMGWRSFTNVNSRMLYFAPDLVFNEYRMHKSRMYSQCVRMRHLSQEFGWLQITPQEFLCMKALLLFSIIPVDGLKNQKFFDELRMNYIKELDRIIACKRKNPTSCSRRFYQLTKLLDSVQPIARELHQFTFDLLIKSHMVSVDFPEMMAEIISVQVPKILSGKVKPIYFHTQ
Description: (§1) The activity of a compound can be determined using various known methods. For example, AR assays can be used. Such AR assays include binding assays using, for example, cells transfected with the human androgen receptor. Several cell based model systems that allow sensitive detection and monitoring of steroids or other compounds with AR bioactivity are known. Most cell based AR reporter models use transgenic gene constructs that include an androgen response element (ARE) that controls reporter gene (e.g., lucifersrase) expression. For example, a human AR Reporter Assay System is commercially available from Indigo Biosciecnes. The principle application of such an assay product is to quantify functional activities, either agonist or antagonist, that a compound may exert against the human androgen receptor. […] In addition, the anti-proliferative activity of a compound can be determined using various known methods, including in vitro and in vivo antiproliferative assays using cancer cell lines such as a prostate cancer cell line.
(§2) The activity of certain compounds were tested in a human AR agonist assay and a human AR antagonist assay (Indigo Biosciences).

human AR [2] = molecular target: T1, human AR; test: human AR agonist assay (Indigo Biosciences); type: cell-based
Description: as §1, §2

androgen receptor = molecular target: T2, androgen receptor (Homo sapiens, UniProt P10275); test: Ki of Table A (method not described; AR binding assays mentioned generally)
T2 sequence (P10275 1-920): T1 sequence (P10275 1-920)
Description: as §1

[3] = Table A, values match the human AR antagonist assay

| Compound | HillSlope (human AR [1]; Table 4, antagonist mode) | IC50 (human AR [1]; Table 4, antagonist mode) | IC50 (human AR [1]; [3]) | EC50 (human AR [2]) | Ki (androgen receptor) |
| --- | --- | --- | --- | --- | --- |
| C[C@]12CCC3=C(CC[C@@H]4CC(=O)CC[C@]34C)[C@@]13C[C@H]3[C@@H](O)C2 [Compound 203] | 1.202 | 1.18 µM | 1.18 µM |  |  |
| C[C@]12CC[C@@]3(C)C(=C1C[C@H](O)C2)CCC1=CC(=O)CC[C@@H]13 [Compound 103, (9R,10S,13R,16R)-16-hydroxy-9,13-dimethyl-1,2,6,7,9,10,11,12,13,15,16,17-dodecahydro-3H-cyclopenta[a]phenanthren-3-one] |  |  |  | 8950 µM |  |
| C[C@]12CCC3=C(CC[C@H]4CC(=O)CC[C@]34C)[C@@]13C[C@H]3[C@@H](O)C2 [Compound 202, (2S,2aR,3aR,5aS,9aS,11aR)-2-hydroxy-9a, 11a-dimethyl-1,2a,3,4,5a,6,8,9,9a,10,11,11a-dodecahydro-2H-cyclopropa[1,5]cyclopenta[1,2-a]phenanthren-7(5H)-one] | 1.360 | 0.0605 µM | 0.061 µM |  | 0.837 µM |
| CC(C)(O)C(=O)Nc1ccc([N+](=O)[O-])c(C(F)(F)F)c1 [hydroxyflutamide, reference compound] | 1.282 |  |  |  |  |
| C[C@]12CC[C@@]3(C)C(=C1C[C@@H](O)C2)CC[C@H]1CC(=O)CC[C@@H]13 [Compound 106] |  |  | 1.8 µM |  |  |
| C[C@]12CC[C@@]3(C)C(=C1C[C@H](O)C2)CC[C@H]1CC(=O)CC[C@@H]13 [Compound 109] |  |  | 6.8 µM |  |  |
| C[C@]12CCC(=O)C=C1CCC1=C2CC[C@]2(C)C[C@H](O)[C@@H]3C[C@@]132 [Compound 201] | 1.375 |  | 0.218 µM |  | 1.4 µM |
